Measurements reported in patent publication US10499642B2, “Isoxazoline-substituted benzamides and analogues as insecticides” (SYNGENTA PARTICIPATIONS AG, priority 2015, dated 2019).

Legend:
Assay type in all cases: in vivo
[1] = tested on: Diabrotica Balteata; test: Diabrotica balteata (corn root worm) maize sprout test; conditions: 96 h, read-out: effect in at least one of the two categories (mortality or growth inhibition)
How it was run: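 Maize sprouts on agar were sprayed with aqueous test solutions made from 10′000 ppm DMSO stocks, dried, then infested with 6 to 10 L2 larvae per well. Mortality and growth inhibition versus untreated samples were assessed 4 days after infestation; application rate 200 ppm.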

[2] = tested on: Tetranychus urticae; test: Tetranychus urticae (two-spotted spider mite) bean leaf disc test; conditions: foliar, 192 h
Description: Tetranychus urticae (Two-Spotted Spider Mite):
Bean leaf discs on agar in 24-well microtiter plates were sprayed with aqueous test solutions prepared from 10′000 ppm DMSO stock solutions. After drying the leaf discs were infested with a mite population of mixed ages. The samples were assessed for mortality on mixed population (mobile stages) 8 days after infestation.

[3] = tested on: Spodoptera littoralis; test: Spodoptera littoralis (Egyptian cotton leaf worm) cotton leaf disc test; conditions: foliar, 72 h, read-out: control (at least one of mortality, anti-feedant effect, and growth inhibition)
How it was run: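 Cotton leaf discs on agar were sprayed with aqueous dilutions of 10′000 ppm DMSO stocks, dried and infested with five L1 larvae. Mortality, anti-feedant effect and growth inhibition were scored against untreated samples 3 days after infestation. Control = any of these higher than untreated.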

[4] = tested on: Myzus persicae; test: Myzus persicae (green peach aphid) sunflower leaf disc test; conditions: foliar, 144 h
Description: Myzus persicae (Green Peach Aphid):
Sunflower leaf discs were placed on agar in a 24-well microtiter plate and sprayed with test solutions at an application rate of 200 ppm. After drying, the leaf discs were infested with an aphid population of mixed ages. After an incubation period of 6 days after treatment, samples were checked for mortality. The following compounds gave at least 80% mortality of Myzus persicae: […]

[5] = tested on: Plutella xylostella; test: Plutella xylostella (diamond back moth) artificial diet test; conditions: 120 h, read-out: effect in at least one of the two categories (mortality or growth inhibition)
How it was run: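 Artificial diet treated with aqueous compound solutions made from DMSO stocks, dried, then infested with L2 larvae (10 to 15 per well). Mortality and growth inhibition scored versus untreated controls 5 days after infestation. Application rate 200 ppm.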

[6] = tested on: Thrips tabaci; test: Thrips tabaci (onion thrips) sunflower leaf disc test; conditions: foliar, 144 h
Description: Thrips tabaci (Onion Thrips):
Sunflower leaf discs were placed on agar in 24-well microtiter plates and sprayed with aqueous test solutions prepared from 10′000 ppm DMSO stock solutions. After drying the leaf discs were infested with a thrips population of mixed ages. The samples were assessed for mortality 6 days after infestation.

Cc1cc(C2=NO[C@@](c3cc(Cl)c(Cl)c(Cl)c3)(C(F)(F)F)C2)ccc1C(=O)NC1CC(OCC2CCC2)=NO1 (stereo partly drawn) [Compound A111, N-[3-(cyclobutylmethoxy)-4,5-dihydroisoxazol-5-yl]-2-methyl-4-[(5S)-5-(3,4,5-trichlorophenyl)-5-(trifluoromethyl)-4H-isoxazol-3-yl]benzamide]
≥ 80%: percent effect (mortality or growth inhibition) at 200 ppm [1] | mortality at 200 ppm [2] | percent control (mortality, anti-feedant effect or growth inhibition) at 200 ppm [3] | mortality at 200 ppm [4] | percent effect (mortality or growth inhibition) at 200 ppm [5] | mortality at 200 ppm [6]

Cc1cc(C2=NO[C@@](c3cc(Cl)c(Cl)c(Cl)c3)(C(F)(F)F)C2)ccc1C(=O)NC1CC(OCc2ccccn2)=NO1 (stereo partly drawn) [Compound A112, 2-methyl-N-[3-(2-pyridylmethoxy)-4,5-dihydroisoxazol-5-yl]-4-[(5S)-5-(3,4,5-trichlorophenyl)-5-(trifluoromethyl)-4H-isoxazol-3-yl]benzamide]
≥ 80%: percent effect (mortality or growth inhibition) at 200 ppm [1] | mortality at 200 ppm [2] | percent control (mortality, anti-feedant effect or growth inhibition) at 200 ppm [3] | mortality at 200 ppm [4] | percent effect (mortality or growth inhibition) at 200 ppm [5] | mortality at 200 ppm [6]

C#CCCCOC1=NOC(NC(=O)c2ccc(C3=NO[C@@](c4cc(Cl)c(Cl)c(Cl)c4)(C(F)(F)F)C3)cc2C)C1 (stereo partly drawn) [Compound A113, 2-methyl-N-(3-pent-4-ynoxy-4,5-dihydroisoxazol-5-yl)-4-[(5S)-5-(3,4,5-trichlorophenyl)-5-(trifluoromethyl)-4H-isoxazol-3-yl]benzamide]
≥ 80%: percent effect (mortality or growth inhibition) at 200 ppm [1] | mortality at 200 ppm [2] | percent control (mortality, anti-feedant effect or growth inhibition) at 200 ppm [3] | mortality at 200 ppm [4] | percent effect (mortality or growth inhibition) at 200 ppm [5] | mortality at 200 ppm [6]

CCNC(=O)COC1=NOC(NC(=O)c2ccc(C3=NO[C@@](c4cc(Cl)c(Cl)c(Cl)c4)(C(F)(F)F)C3)cc2C)C1 (stereo partly drawn) [Compound A115, N-[3-[2-(ethylamino)-2-oxo-ethoxy]-4,5-dihydroisoxazol-5-yl]-2-methyl-4-[(5S)-5-(3,4,5-trichlorophenyl)-5-(trifluoromethyl)-4H-isoxazol-3-yl]benzamide]
≥ 80%: percent effect (mortality or growth inhibition) at 200 ppm [1] | mortality at 200 ppm [2] | percent control (mortality, anti-feedant effect or growth inhibition) at 200 ppm [3] | mortality at 200 ppm [4] | percent effect (mortality or growth inhibition) at 200 ppm [5] | mortality at 200 ppm [6]

CO/N=C(\C)COC1=NOC(NC(=O)c2ccc(C3=NO[C@@](c4cc(Cl)c(Cl)c(Cl)c4)(C(F)(F)F)C3)cc2C)C1 (stereo partly drawn) [Compound A116, N-[3-[(2E)-2-methoxyiminopropoxy]-4,5-dihydroisoxazol-5-yl]-2-methyl-4-[(5S)-5-(3,4,5-trichlorophenyl)-5-(trifluoromethyl)-4H-isoxazol-3-yl]benzamide]
≥ 80%: percent effect (mortality or growth inhibition) at 200 ppm [1] | mortality at 200 ppm [2] | percent control (mortality, anti-feedant effect or growth inhibition) at 200 ppm [3] | mortality at 200 ppm [4] | percent effect (mortality or growth inhibition) at 200 ppm [5] | mortality at 200 ppm [6]

CO/N=C/C1=NOC(NC(=O)c2ccc(C3=NO[C@@](c4cc(Cl)c(F)c(Cl)c4)(C(F)(F)F)C3)cc2C)C1 (stereo partly drawn) [Compound A119, 4-[(5S)-5-(3,5-dichloro-4-fluoro-phenyl)-5-(trifluoromethyl)-4H-isoxazol-3-yl]-N-[3-[(E)-methoxyiminomethyl]-4,5-dihydroisoxazol-5-yl]-2-methyl-benzamide]
≥ 80%: percent effect (mortality or growth inhibition) at 200 ppm [1] | mortality at 200 ppm [2] | percent control (mortality, anti-feedant effect or growth inhibition) at 200 ppm [3] | mortality at 200 ppm [4] | percent effect (mortality or growth inhibition) at 200 ppm [5] | mortality at 200 ppm [6]

CNC1=NOC(NC(=O)c2ccc(C3=NO[C@@](c4cc(Cl)c(F)c(Cl)c4)(C(F)(F)F)C3)cc2C)C1 (stereo partly drawn) [Compound A120]
≥ 80%: percent effect (mortality or growth inhibition) at 200 ppm [1] | mortality at 200 ppm [2] | percent control (mortality, anti-feedant effect or growth inhibition) at 200 ppm [3] | mortality at 200 ppm [4] | percent effect (mortality or growth inhibition) at 200 ppm [5] | mortality at 200 ppm [6]

CC(=O)COC1=NOC(NC(=O)c2ccc(C3=NO[C@@](c4cc(Cl)c(Cl)c(Cl)c4)(C(F)(F)F)C3)cc2C)C1 (stereo partly drawn) [Compound A121, N-(3-acetonyloxy-4,5-dihydroisoxazol-5-yl)-2-methyl-4-[(5S)-5-(3,4,5-trichlorophenyl)-5-(trifluoromethyl)-4H-isoxazol-3-yl]benzamide]
≥ 80%: percent effect (mortality or growth inhibition) at 200 ppm [1] | mortality at 200 ppm [2] | percent control (mortality, anti-feedant effect or growth inhibition) at 200 ppm [3] | mortality at 200 ppm [4] | percent effect (mortality or growth inhibition) at 200 ppm [5] | mortality at 200 ppm [6]

CCC1(COC2=NOC(NC(=O)c3ccc(C4=NO[C@@](c5cc(Cl)c(Cl)c(Cl)c5)(C(F)(F)F)C4)cc3C)C2)COC1 (stereo partly drawn) [Compound A122, N-[3-[(3-ethyloxetan-3-yl)methoxy]-4,5-dihydroisoxazol-5-yl]-2-methyl-4-[(5S)-5-(3,4,5-trichlorophenyl)-5-(trifluoromethyl)-4H-isoxazol-3-yl]benzamide]
≥ 80%: percent effect (mortality or growth inhibition) at 200 ppm [1] | mortality at 200 ppm [2] | percent control (mortality, anti-feedant effect or growth inhibition) at 200 ppm [3] | mortality at 200 ppm [4] | percent effect (mortality or growth inhibition) at 200 ppm [5] | mortality at 200 ppm [6]

Cc1cc(C2=NO[C@@](c3cc(Cl)c(Cl)c(Cl)c3)(C(F)(F)F)C2)ccc1C(=O)NC1CC(OCC2(C)COC2)=NO1 (stereo partly drawn) [Compound A123, 2-methyl-N-[3-[(3-methyloxetan-3-yl)methoxy]-4,5-dihydroisoxazol-5-yl]-4-[(5S)-5-(3,4,5-trichlorophenyl)-5-(trifluoromethyl)-4H-isoxazol-3-yl]benzamide]
≥ 80%: percent effect (mortality or growth inhibition) at 200 ppm [1] | mortality at 200 ppm [2] | percent control (mortality, anti-feedant effect or growth inhibition) at 200 ppm [3] | mortality at 200 ppm [4] | percent effect (mortality or growth inhibition) at 200 ppm [5] | mortality at 200 ppm [6]

Cc1cc(C2=NO[C@@](c3cc(Cl)c(Cl)c(Cl)c3)(C(F)(F)F)C2)ccc1C(=O)NC1CC(OCc2ccncc2)=NO1 (stereo partly drawn) [Compound A124, 2-methyl-N-[3-(4-pyridylmethoxy)-4,5-dihydroisoxazol-5-yl]-4-[(5S)-5-(3,4,5-trichlorophenyl)-5-(trifluoromethyl)-4H-isoxazol-3-yl]benzamide]
≥ 80%: percent effect (mortality or growth inhibition) at 200 ppm [1] | mortality at 200 ppm [2] | percent control (mortality, anti-feedant effect or growth inhibition) at 200 ppm [3] | mortality at 200 ppm [4] | percent effect (mortality or growth inhibition) at 200 ppm [5] | mortality at 200 ppm [6]

Cc1cc(C2=NO[C@@](c3cc(Cl)c(Cl)c(Cl)c3)(C(F)(F)F)C2)ccc1C(=O)NC1CC(Br)=NO1 (stereo partly drawn) [Compound A125, N-(3-bromo-4,5-dihydroisoxazol-5-yl)-2-methyl-4-[(5S)-5-(3,4,5-trichlorophenyl)-5-(trifluoromethyl)-4H-isoxazol-3-yl]benzamide]
≥ 80%: percent effect (mortality or growth inhibition) at 200 ppm [1] | mortality at 200 ppm [2] | percent control (mortality, anti-feedant effect or growth inhibition) at 200 ppm [3] | mortality at 200 ppm [4] | percent effect (mortality or growth inhibition) at 200 ppm [5] | mortality at 200 ppm [6]

COC1=NOC(NC(=O)c2ccc(C3=NOC(c4cc(Cl)cc(Cl)c4)(C(F)(F)F)C3)cc2C)C1 (stereo not drawn) [Compound A126]
≥ 80%: percent effect (mortality or growth inhibition) at 200 ppm [1] | mortality at 200 ppm [2] | percent control (mortality, anti-feedant effect or growth inhibition) at 200 ppm [3] | mortality at 200 ppm [4] | percent effect (mortality or growth inhibition) at 200 ppm [5] | mortality at 200 ppm [6]
